Experimental data from paper PMC6272674, “Selected Compounds Structurally Related to Acyclic Sesquiterpenoids and Their Antibacterial and Cytotoxic Activity” (Molecules, 2015).
Converted amounts (≈) assume the structure as drawn.

Columns and labels:
MTT viability, IEC6 = assay type: cell-based; settings: rat, IEC-6 small intestine epithelial cells, 1000 µM (IC50 exceeded 1000 µM), read-out: viability ± standard deviation at 1000 µM
Method: (§1) Cell lines and in vitro culture conditions: The human promyelocytic leukaemia cell line HL-60 was obtained from the Centre of Molecular and Macromolecular Biology in Łódź, Poland and was cultured in RPMI 1640 medium with 20% heat-inactivated fetal bovine serum (FBS). To reduce spontaneous differentiation, the cells were never allowed to exceed a concentration of 1.0 × 10^6 cells/mL. The human keratinocyte cell line HaCaT was obtained from Cell Lines Service, Germany (CLS) and cultured in DMEM medium with 10% FBS. Human colorectal adenocarcinoma HT29 and normal epithelial IEC-6 cell lines (from ATCC) were cultured in DMEM medium with 10% FBS. The human skin melanoma cell line MEWO (from CLS) was cultured in DMEM:F12 supplemented with 2 mM L-glutamine and 10% FBS. Human fibroblasts from gingiva isolated from original tissue, HFIB-G, (from Provitro) were cultured in Quantum 333 (from Immunique). The media were supplemented with 100 U/mL penicillin and 100 µg/mL streptomycin; all media components were obtained from Life Technologies. The adherent cell lines used in the studies were seeded on microplates before they exceeded 80% of confluence. Cells were cultured at 37 °C in 5% CO2 air atmosphere/95% air atmosphere.
(§2) Cytotoxic activity: The cells (the density for HL-60 was 0.5 × 10^4 cells/100 µL, otherwise it was 1 × 10^4 cells/100 µL) were plated into each well of 96-well microtiter plates and, after their attachment to the plate surface, treated with 10 µL of the indicated concentrations of compounds for 24 h. Viability was determined by MTT assay following the treatment. MTT (3-[4.5-dimethylthiazol-2-yl]-2.5-diphenyltetrazolium bromide; Sigma, St. Louis, MO, USA) solution was added to each well and incubated for another 4 h. The resulting MTT-formazan product was dissolved by the addition of lysis buffer (20% SDS and 50% DMF). The amount of formazan was determined by measuring absorbance at 570 nm with a Synergy 2 microplate reader (BioTek, Winooski, VT, USA) operated by the Gen5 program. The experiments were conducted three times with five replications. The results are expressed as an optical density ratio of the treatment to control. All data are presented as means ± SD.

[1] = tested on: Staphylococcus aureus ATCC 43300; assay: Micro-dilution broth MIC, Staphylococcus aureus; assay type: cell-based; settings: ATCC43300, 24 h, 37 °C, read-out: Minimum Inhibitory Concentrations MIC
Method: (§3) The standard strains, Gram-positive: Staphylococcus aureus ATCC […], Enterococcus faecalis Van B ATCC 51299 and Enterococcus faecium VA sensitive ATCC 35667, and Gram-negative: Escherichia coli ATCC 25922, Klebsiella pneumoniae ATCC 700603 and Acinetobacter baumannii ATCC 19606, came from a collection of the Environmental Biology Department, Medical University of Łódź. The standard strains were cultivated in Columbia Agar Medium and incubated at 37 °C for 24 h in aerobic conditions.
(§4) The antibacterial activity of the racemates and E/Z-mixtures was investigated using the micro‑dilution broth method. The compounds were diluted in ethanol. This stock solution was mixed with 100 µL of Mueller-Hinton broth to obtain concentrations from 10 µg/mL to 80 µg/mL. The mixtures were then transferred to 96-well microtiter plates. The microbial suspension was standardised to a cell density of 1.5 × 10^8 CFU, which was equal to an optical density of 0.5 on the Mc Farland scale by a bio-Merieux densitometer; one well was filled with broth only to act as a control for strain growth.

[2] = tested on: Acinetobacter baumannii ATCC 19606; assay: Micro-dilution broth MIC, Acinetobacter baumannii; assay type: cell-based; settings: ATCC19606, 24 h, 37 °C, read-out: Minimum Inhibitory Concentrations MIC
Method: as §3, §4

MTT viability, HT29 = assay type: cell-based, human; settings: human, HT29 colorectal adenocarcinoma cells, 1000 µM (IC50 exceeded 1000 µM), read-out: viability ± standard deviation at 1000 µM
Method: as §1, §2

MTT viability, MEWO = assay type: cell-based, human; settings: human, MEWO malignant melanoma cells, 1000 µM (IC50 exceeded 1000 µM), read-out: viability ± standard deviation at 1000 µM
Method: as §1, §2

[3] = tested on: Enterococcus faecium ATCC 35667; assay: Micro-dilution broth MIC, Enterococcus faecium; assay type: cell-based; settings: ATCC35667, 24 h, 37 °C, read-out: Minimum Inhibitory Concentrations MIC
Method: as §3, §4

[4] = tested on: Enterococcus faecalis ATCC 51299; assay: Micro-dilution broth MIC, Enterococcus faecalis; assay type: cell-based; settings: ATCC51299, 24 h, 37 °C, read-out: Minimum Inhibitory Concentrations MIC
Method: as §3, §4

[5] = tested on: Promyelocytic Leukaemia HL-60; assay: MTT viability, HL-60; assay type: cell-based, human; settings: Homo sapiens, HL-60, 24 h, HL-60, MTT, range 10–1000 µM, read-out: half maximal inhibitory concentration (IC50), interpolated
Method: as §1, §2

[6] = tested on: Escherichia coli ATCC 25922; assay: Micro-dilution broth MIC, Escherichia coli; assay type: cell-based; settings: ATCC25922, 24 h, 37 °C, read-out: Minimum Inhibitory Concentrations MIC
Method: as §3, §4

MTT viability, HaCaT = assay type: cell-based, human; settings: human, HaCaT keratinocytes, 1000 µM (IC50 exceeded 1000 µM), read-out: viability ± standard deviation at 1000 µM
Method: as §1, §2

MTT viability, HFIG = assay type: cell-based, human; settings: human, HFIG (HFIB-G) gingival fibroblasts, 1000 µM (IC50 exceeded 1000 µM), read-out: viability ± standard deviation at 1000 µM
Method: as §1, §2

[7] = tested on: Klebsiella pneumoniae ATCC 700603; assay: Micro-dilution broth MIC, Klebsiella pneumoniae; assay type: cell-based; settings: ATCC700603, 24 h, 37 °C, read-out: Minimum Inhibitory Concentrations MIC
Method: as §3, §4

Malignant Melanoma MEWO = assay: MTT viability, MEWO; assay type: cell-based, human; settings: Homo sapiens, 24 h, range 10–1000 µM, read-out: half maximal inhibitory concentration (IC50), interpolated
Method: as §1, §2

Keratinocytes HaCaT = assay: MTT viability, HaCaT; assay type: cell-based, human; settings: Homo sapiens, 24 h, range 10–1000 µM, read-out: half maximal inhibitory concentration (IC50), interpolated
Method: as §1, §2

Fibroblasts HFIG = assay: MTT viability, HFIG; assay type: cell-based, human; settings: Homo sapiens, Fibroblast, 24 h, range 10–1000 µM, read-out: half maximal inhibitory concentration (IC50), interpolated
Method: as §1, §2

## CC(=O)OCC=C(C)C(C)CC(C)CCC=C(C)C (stereo not drawn) [Compound 35, 3,4,6,10-Tetramethylundec-2,9-dien-1-yl acetate]
MTT viability, IEC6
  viability at 24 h, 1000 µM: 71%
[1]
  MIC: 34 µg/mL
[2]
  MIC: 12 µg/mL
MTT viability, HT29
  viability at 24 h, 1000 µM: 83%
MTT viability, MEWO
  viability at 24 h, 1000 µM: 112%
[3]
  MIC: 14 µg/mL
[4]
  MIC: 16 µg/mL
[5]
  IC50: 343 µM
[6]
  MIC: 16 µg/mL
MTT viability, HaCaT
  viability at 24 h, 1000 µM: 102%
MTT viability, HFIG
  viability at 24 h, 1000 µM: 87%
[7]
  MIC: 18 µg/mL

## CC(C)=CCCC(C)C(C)=CCCC(C)=CCO (stereo not drawn) [Compound 24, 3,7,8,12-Tetramethyltrideca-2,6,11-trien-1-ol]
MTT viability, IEC6
  viability at 24 h, 1000 µM: 85%
[1]
  MIC: 22 µg/mL (≈ 87.9 µM)
[2]
  MIC: 40 µg/mL (≈ 160 µM)
MTT viability, HT29
  viability at 24 h, 1000 µM: 78%
Malignant Melanoma MEWO
  IC50: 512 µM
[3]
  MIC: 32 µg/mL (≈ 128 µM)
[4]
  MIC: 18 µg/mL (≈ 71.9 µM)
[5]
  IC50: 100 µM
[6]
  MIC: 52 µg/mL (≈ 208 µM)
Keratinocytes HaCaT
  IC50: 686 µM
Fibroblasts HFIG
  IC50: 390 µM
[7]
  MIC: 44 µg/mL (≈ 176 µM)

## CNC(C)C1CCC(N)C(OC2C(N)CC(N)C(OC3OCC(C)(O)C(NC)C3O)C2O)O1 (stereo not drawn) [Gentamicin, reference compound]
[1]
  MIC: 16 µg/mL (≈ 33.5 µM)
[2]
  MIC: 32 µg/mL (≈ 67 µM)
[3]
  MIC: 32 µg/mL (≈ 67 µM)
[4]
  MIC: > 64 µg/mL
[6]
  MIC: 4 µg/mL (≈ 8.38 µM)
[7]
  MIC: 32 µg/mL (≈ 67 µM)

## O=C(O)c1cn(C2CC2)c2cc(N3CCNCC3)c(F)cc2c1=O [Ciprofloxacin, reference compound]
[1]
  MIC: 8 µg/mL (≈ 24.1 µM)
[2]
  MIC: 4 µg/mL (≈ 12.1 µM)
[3]
  MIC: 8 µg/mL (≈ 24.1 µM)
[4]
  MIC: 2 µg/mL (≈ 6.04 µM)
[6]
  MIC: 4 µg/mL (≈ 12.1 µM)
[7]
  MIC: 2 µg/mL (≈ 6.04 µM)

## CC(=O)OCC=C(C)CCC(C)CCC=C(C)C (stereo not drawn) [Compound 34, 3,6,10-Trimethylundeca-2,9-dien-1-yl acetate]
MTT viability, IEC6
  viability at 24 h, 1000 µM: 79%
[1]
  MIC: 32 µg/mL
[2]
  MIC: 18 µg/mL
MTT viability, HT29
  viability at 24 h, 1000 µM: 98%
MTT viability, MEWO
  viability at 24 h, 1000 µM: 98%
[3]
  MIC: 18 µg/mL
[4]
  MIC: 20 µg/mL
[5]
  IC50: 312 µM
[6]
  MIC: 18 µg/mL
MTT viability, HaCaT
  viability at 24 h, 1000 µM: 110%
MTT viability, HFIG
  viability at 24 h, 1000 µM: 99%
[7]
  MIC: 20 µg/mL

## CC(C)=CCCC(C)CC(C)C(C)=CCO (stereo not drawn) [Compound 29, 3,4,6,10-Tetramethylundeca-2,9-dien-1-ol]
MTT viability, IEC6
  viability at 24 h, 1000 µM: 103%
[1]
  MIC: 28 µg/mL (≈ 125 µM)
[2]
  MIC: 32 µg/mL (≈ 143 µM)
MTT viability, HT29
  viability at 24 h, 1000 µM: 82%
Malignant Melanoma MEWO
  IC50: 587 µM
[3]
  MIC: 18 µg/mL (≈ 80.2 µM)
[4]
  MIC: 22 µg/mL (≈ 98 µM)
[5]
  IC50: 252 µM
[6]
  MIC: 38 µg/mL (≈ 169 µM)
Keratinocytes HaCaT
  IC50: 946 µM
Fibroblasts HFIG
  IC50: 756 µM
[7]
  MIC: 36 µg/mL (≈ 160 µM)

## CC(=O)OCC=C(C)CCC=C(C)C(C)CCC=C(C)C (stereo not drawn) [Compound 30, 3,7,8,12-Tetramethyltrideca-2,6,11-trien-1-yl acetate]
MTT viability, IEC6
  viability at 24 h, 1000 µM: 86%
[1]
  MIC: 30 µg/mL
[2]
  MIC: 24 µg/mL
MTT viability, HT29
  viability at 24 h, 1000 µM: 96%
Malignant Melanoma MEWO
  IC50: 850 µM
[3]
  MIC: 18 µg/mL
[4]
  MIC: 24 µg/mL
[5]
  IC50: 289 µM
[6]
  MIC: 30 µg/mL
Keratinocytes HaCaT
  IC50: 900 µM
MTT viability, HFIG
  viability at 24 h, 1000 µM: 105%
[7]
  MIC: 24 µg/mL

## CC(=O)OCC=C(C)CC(C)CCC=C(C)C (stereo not drawn) [Compound 33, 3,5,9-Trimethyldeca-2,8-dien-1-yl acetate]
MTT viability, IEC6
  viability at 24 h, 1000 µM: 95%
[1]
  MIC: 26 µg/mL
[2]
  MIC: 22 µg/mL
MTT viability, HT29
  viability at 24 h, 1000 µM: 110%
MTT viability, MEWO
  viability at 24 h, 1000 µM: 103%
[3]
  MIC: 16 µg/mL
[4]
  MIC: 18 µg/mL
[5]
  IC50: 400 µM
[6]
  MIC: 26 µg/mL
MTT viability, HaCaT
  viability at 24 h, 1000 µM: 101%
MTT viability, HFIG
  viability at 24 h, 1000 µM: 100%
[7]
  MIC: 18 µg/mL

## CC(=O)OCC=C(C)CCC=C(C)CCC=C(C)C [Farnesyl acetate (5), farnesyl acetate, reference compound]
MTT viability, IEC6
  viability at 24 h, 1000 µM: 78%
[1]
  MIC: 28 µg/mL
[2]
  MIC: 22 µg/mL
MTT viability, HT29
  viability at 24 h, 1000 µM: 105%
Malignant Melanoma MEWO
  IC50: 734 µM
[3]
  MIC: 20 µg/mL
[4]
  MIC: 20 µg/mL
[5]
  IC50: 121 µM
[6]
  MIC: 28 µg/mL
MTT viability, HaCaT
  viability at 24 h, 1000 µM: 102%
MTT viability, HFIG
  viability at 24 h, 1000 µM: 98%
[7]
  MIC: 22 µg/mL

## CC(=O)OC/C=C(\C)CCC=CC(C)CCC=C(C)C (stereo not drawn) [Compound 31, (E)-3,8,12-Trimethyltrideca-2,6,11-trien-1-yl acetate]
MTT viability, IEC6
  viability at 24 h, 1000 µM: 94%
[1]
  MIC: 24 µg/mL
[2]
  MIC: 18 µg/mL
MTT viability, HT29
  viability at 24 h, 1000 µM: 107%
Malignant Melanoma MEWO
  IC50: 930 µM
[3]
  MIC: 20 µg/mL
[4]
  MIC: 20 µg/mL
[5]
  IC50: 350 µM
[6]
  MIC: 26 µg/mL
MTT viability, HaCaT
  viability at 24 h, 1000 µM: 98%
Fibroblasts HFIG
  IC50: 850 µM
[7]
  MIC: 22 µg/mL
